Test system: Jurkat cell
Assay: Jurkat IL-2 Production Assay
Type: cell-based
Details: Homo sapiens; IL-2 production in Jurkat cells; 18 h~20 h incubation; serum/stimulant condition (1% FBS with PHA or 30% FBS with PMA/Ionomycin) not specified
Method: Jurkat IL-2 Production Assay
Jurkat cell (ATCC) was grown in RPMI 1640 with 10% FBS and 1% penicillin/streptomycin. The cell density was kept at 1.2˜1.8×10^6/mL in culture flask before seeding into culture plate, and the cell density in the plate was 0.5×10^6/[…]/well.
RPMI 1640 with 1% FBS or 30% FBS for high serum assay.
serial dilution was done in 100% DMSO, and intermediate dilution was done with RPMI 1640 medium with 1% FBS. The DMSO final concentration in culture well was 0.25%.
PHA (Sigma#L9017-10MG) was used for the assay with 1% FBS in culture medium, and added after 10 minutes exposure of cell to compound/DMSO. The PHA final concentration in culture well was 5 μg/mL. PMA (Sigma# P-8139 5MG)/Ionomycin (Sigma#10634-5MG) was used for the assay with 30% FBS in culture medium, and added at same time point as the 1% FBS culture assay. The final concentration of PMA was 50 ng/mL, and Ionomycin final concentration was 500 ng/mL.
at 37° C. with 5% CO2 and 95% humidity for 18 h˜20 h.
IC50 was calculated with the data analysis software XLfit4, General Pharmacology model 251.

Row | IC50 | Structure (SMILES)
1 | 687 nM | Cc1cc(S(=O)(=O)N(C)C)ccc1-c1ncc2[nH]c(-c3c(F)cccc3Cl)cc2n1 [Example 1, 4-[6-(2-chloro-6-fluoro-phenyl)-5H-pyrrolo[3,2-d]pyrimidin-2-yl]-3,N,N-trimethyl-benzenesulfonamide]
2 | 766 nM | Cn1nc(C(F)(F)F)cc1-c1cnc2[nH]c(-c3ccccc3Cl)cc2n1 [Example 2, 6-(2-Chloro-phenyl)-2-(2-methyl-5-trifluoromethyl-2H-pyrazol-3-yl)-5H-pyrrolo[2,3-b]pyrazine]
3 | 205 nM | COC(=O)c1ccc(-c2cnc3[nH]c(-c4ccccc4Cl)cc3n2)c(C)c1 [Example 3, 4-[6-(2-Chloro-phenyl)-5H-pyrrolo[2,3-b]pyrazin-2-yl]-3-methyl-benzoic acid methyl ester]
4 | 133 nM | Cc1cc(S(=O)(=O)N(C)C)ccc1-c1cnc2[nH]c(-c3ccccc3Cl)cc2n1 [Example 4, 4-(6-(2-Chlorophenyl)-5H-pyrrolo[2,3-b]pyrazin-2-yl)-N,N,3-trimethylbenzenesulfonamide]
5 | 269 nM | Cn1nc(C(F)(F)F)cc1-c1cnc2[nH]c(-c3c(F)cccc3Cl)cc2n1 [Example 5, 6-(2-chloro-6-fluorophenyl)-2-(1-methyl-3-(trifluoromethyl)-1H-pyrazol-5-yl)-5H-pyrrolo[2,3-b]pyrazine]
6 | 681 nM | Cn1nc(C(F)(F)F)cc1-c1cnc2[nH]c(C3CCCCC3)cc2n1 [Example 6, 6-Cyclohexyl-2-(1-methyl-3-(trifluoromethyl)-1H-pyrazol-5-yl)-5H-pyrrolo[2,3-b]pyrazine]
7 | 184 nM | Cc1cc(S(=O)(=O)N(C)C)ccc1-c1cnc2[nH]c(C3CCCCC3)cc2n1 [Example 7, 4-(6-cyclohexyl-5H-pyrrolo[2,3-b]pyrazin-2-yl)-N,N,3-trimethylbenzenesulfonamide]

From US20130158040A1, “DIAZAINDOLE INHIBITORS OF CRAC” (Hoffmann-La Roche Inc., priority 2011, published 2013)
